Test results taken from US20100267561A1, “HERBICIDAL PYRIDAZINONE DERIVATIVES” (priority 2007, published 2010).

Tests used:
Type in all cases: in vivo
[1] = system: giant foxtail (Setaria faberi); assay: Test A pre-/postemergence plant response
Procedure, shortened: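 Scores reflect visual plant injury relative to untreated controls on a 0–100 scale, recorded approximately 10 days after simultaneous preemergence soil spraying and postemergence spraying of one- to two-leaf seedlings grown in loam–sand.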

[2] = system: bermudagrass (Cynodon dactylon); assay: Test B pre-/postemergence plant response
Procedure, shortened: (§1)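 Seeds were sown and sprayed preemergence, while plants at 2 to 18 cm (1- to 4-leaf stage) got postemergence sprays. Compounds were formulated in a non-phytotoxic solvent mixture with surfactant. After 13 to 15 days in a greenhouse, injury was rated visually against untreated controls, 0 (no effect) to 100 (complete control).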

[3] = system: blackgrass (Alopecurus myosuroides); assay: Test B pre-/postemergence plant response
Procedure, shortened: as §1

[4] = system: common (oilseed) sunflower (Helianthus annuus); assay: Test B pre-/postemergence plant response; details: Preemergence
Procedure, shortened: as §1

[5] = system: downy bromegrass (Bromus tectorum); assay: Test B pre-/postemergence plant response
Procedure, shortened: as §1

[6] = system: giant foxtail (Setaria faberii); assay: Test B pre-/postemergence plant response
Procedure, shortened: as §1

[7] = system: goosegrass (Eleusine indica); assay: Test B pre-/postemergence plant response
Procedure, shortened: as §1

[8] = system: johnsongrass (Sorghum halepense); assay: Test B pre-/postemergence plant response
Procedure, shortened: as §1

[9] = system: pigweed (Amaranthus retroflexus); assay: Test B pre-/postemergence plant response
Procedure, shortened: as §1

soybean (Glycine max) = assay: Test B pre-/postemergence plant response
Procedure, shortened: as §1

[10] = system: velvetleaf (Abutilon theophrasti); assay: Test B pre-/postemergence plant response
Procedure, shortened: as §1

[11] = system: wheat (Triticum aestivum); assay: Test B pre-/postemergence plant response
Procedure, shortened: as §1

[12] = 250 g ai/ha, preemergence, 0-100 scale
[13] = Postemergence, 31 g ai/ha, scale 0 to 100, 0 no effect, 100 complete control
[14] = Postemergence, 62 g ai/ha, scale 0 to 100
[15] = Postemergence, 125 g ai/ha, scale 0 to 100
[16] = Postemergence, 250 g ai/ha, scale 0 to 100
[17] = Preemergence, 31 g ai/ha, 0 to 100 scale, 0 no effect, 100 complete control
[18] = Preemergence, 62 g ai/ha, scale 0 to 100
[19] = Preemergence, 125 g ai/ha, scale 0 to 100
[20] = Preemergence, 250 g ai/ha, scale 0 to 100

In the case of Cc1cc(-c2ccc(Br)cc2)nn1-c1c(O)cnn(C)c1=O [Compound 4], the “Plant response rating, Foxtail, Giant” value ([1]; Postemergence, 125 g ai/ha, 0 to 100 scale, 0 no effect, 100 complete control) is reported as 100, the “Plant response rating, Foxtail, Giant” value ([1]; Postemergence, 500 g ai/ha, 0 to 100 scale, 0 no effect, 100 complete control) is reported as 100 and the “Plant response rating, Foxtail, Giant” value ([1]; Preemergence, 125 g ai/ha, 0 to 100 scale (0 no effect, 100 complete control)) is reported as 100. For the same compound, the “Plant response rating, Foxtail, Giant” value ([1]; Preemergence, 500 g ai/ha, 0 to 100 scale (0 no effect, 100 complete control)) was 100, the “Bermudagrass plant response rating” value [2, 12] was 100 and the “Plant response rating, Bermudagrass” value [2, 13] was 100. The “Plant response rating, Bermudagrass” value [2, 14] was 100, the “Plant response rating, Bermudagrass” value [2, 15] was 100 and the “Plant response rating, Bermudagrass” value [2, 16] was 100. For the same compound, the “Plant response rating, Bermudagrass” value [2, 17] was 100, the “Plant response rating, Bermudagrass” value [2, 18] was 100 and the “Plant response rating, Bermudagrass” value [2, 19] was 100. For the same compound, the “Blackgrass plant response rating” value [3, 12] was 100, the “Plant response rating, Blackgrass” value [3, 13] was 90 and the “Plant response rating, Blackgrass” value [3, 14] was 100. For the same compound, the “Plant response rating, Blackgrass” value [3, 15] was 100, the “Plant response rating, Blackgrass” value [3, 16] was 100 and the “Plant response rating, Blackgrass” value [3, 17] was 100. The “Plant response rating, Blackgrass” value [3, 18] was 100, the “Plant response rating, Blackgrass” value [3, 19] was 100 and the “Plant response rating, Sunflower” value ([4]; 31 g ai/ha, 0 to 100 scale, 0 no effect, 100 complete control) was 0. The “Plant response rating, Sunflower” value ([4]; 62 g ai/ha, scale 0 to 100) was 0, the “Plant response rating, Sunflower” value ([4]; 125 g ai/ha, scale 0 to 100) was 0 and the “Plant response rating, Sunflower” value ([4]; 250 g ai/ha, scale 0 to 100) was 70. The “Plant response rating, Bromegrass, Downy” value [5, 13] was 0, the “Plant response rating, Bromegrass, Downy” value [5, 14] was 5 and the “Plant response rating, Bromegrass, Downy” value [5, 15] was 20. The “Plant response rating, Bromegrass, Downy” value [5, 16] was 40, the “Plant response rating, Bromegrass, Downy” value [5, 17] was 70 and the “Plant response rating, Bromegrass, Downy” value [5, 18] was 70. The “Plant response rating, Bromegrass, Downy” value [5, 19] was 98, the “Plant response rating, Bromegrass, Downy” value ([5]; Preemergence, 250 g ai/ha, scale 0 to 100 (0 no effect, 100 complete control)) was 100 and the “Plant response rating, Foxtail, Giant” value [6, 13] was 100. For the same compound, the “Plant response rating, Foxtail, Giant” value [6, 14] was 100, the “Plant response rating, Foxtail, Giant” value [6, 15] was 100 and the “Plant response rating, Foxtail, Giant” value [6, 16] was 100. For the same compound, the “Plant response rating, Foxtail, Giant” value [6, 17] was 100, the “Plant response rating, Foxtail, Giant” value [6, 18] was 100 and the “Plant response rating, Foxtail, Giant” value [6, 19] was 100. The “Plant response rating, Foxtail, Giant” value [6, 20] was 100, the “Plant response rating, Goosegrass” value [7, 13] was 95 and the “Plant response rating, Goosegrass” value [7, 14] was 100. For the same compound, the “Plant response rating, Goosegrass” value [7, 15] was 100, the “Plant response rating, Goosegrass” value [7, 16] was 100 and the “Plant response rating, Goosegrass” value [7, 17] was 85. For the same compound, the “Plant response rating, Goosegrass” value [7, 18] was 100, the “Plant response rating, Goosegrass” value [7, 19] was 100 and the “Plant response rating, Goosegrass” value [7, 20] was 100. For the same compound, the “Plant response rating, Johnsongrass” value [8, 13] was 80, the “Plant response rating, Johnsongrass” value [8, 15] was 100 and the “Plant response rating, Johnsongrass” value [8, 17] was 0. The “Plant response rating, Johnsongrass” value [8, 18] was 30, the “Plant response rating, Johnsongrass” value [8, 19] was 100 and the “Plant response rating, Johnsongrass” value [8, 20] was 100. The “Plant response rating, Pigweed” value [9, 13] was 0, the “Plant response rating, Pigweed” value [9, 14] was 0 and the “Plant response rating, Pigweed” value [9, 15] was 35. For the same compound, the “Plant response rating, Pigweed” value [9, 16] was 50, the “Plant response rating, Pigweed” value [9, 20] was 0 and the “Plant response rating, Soybean” value (soybean (Glycine max); [13]) was 20. The “Plant response rating, Soybean” value (soybean (Glycine max); [14]) was 30, the “Plant response rating, Soybean” value (soybean (Glycine max); [15]) was 90 and the “Plant response rating, Soybean” value (soybean (Glycine max); [16]) was 90. For the same compound, the “Plant response rating, Soybean” value (soybean (Glycine max); [17]) was 0, the “Plant response rating, Soybean” value (soybean (Glycine max); [18]) was 0 and the “Plant response rating, Soybean” value (soybean (Glycine max); [19]) was 0. The “Plant response rating, Soybean” value (soybean (Glycine max); [20]) was 20, the “Plant response rating, Velvetleaf” value [10, 13] was 5 and the “Plant response rating, Velvetleaf” value [10, 14] was 5. For the same compound, the “Plant response rating, Velvetleaf” value [10, 15] was 20, the “Plant response rating, Velvetleaf” value [10, 16] was 45 and the “Plant response rating, Velvetleaf” value [10, 17] was 0. For the same compound, the “Plant response rating, Velvetleaf” value [10, 18] was 0, the “Plant response rating, Velvetleaf” value [10, 19] was 40 and the “Plant response rating, Velvetleaf” value [10, 20] was 50. For the same compound, the “Plant response rating, Wheat” value [11, 13] was 90, the “Plant response rating, Wheat” value [11, 14] was 100 and the “Plant response rating, Wheat” value [11, 15] was 100. The “Plant response rating, Wheat” value [11, 16] was 100, the “Plant response rating, Wheat” value [11, 17] was 60 and the “Plant response rating, Wheat” value [11, 18] was 95. For the same compound, the “Plant response rating, Wheat” value [11, 19] was 100 and the “Plant response rating, Wheat” value [11, 20] was 100.
